Laboratory results published in patent publication US4687780A, “Anti-tumor compounds of platinum” (Johnson Matthey PLC, priority 1985, dated 1987).

How the values were obtained:
[1] = pharmacokinetic tests: Pt in blood and cumulative percentage dose in urine, cage wash and faeces after oral administration; format: in vivo, female Balb C^- mice
Description: (§1) Additionally, the same compounds were tested for activity against ADJ/PC6A plasmacytoma grown subcutaneously in female Balb C^- mice following oral administration as a suspension in arachis oil. Dosage levels were at 100μ mole/kg of body weight for pharmacokinetic tests to establish the extent of absorption into the systemic circulation.
(§2) Results are presented in terms of concentration (μg/ml) of Pt in the blood and cumulative percentage dose in urine, cage wash and faeces, all after specified time intervals. Results for anti-tumor effect are expressed as LD50 (mg/kg), ED90 (mg/kg), and TI (LD50 /ED90). The figures for LD50 (the dose level causing 50% deaths) and ED90 (the dose level causing a 90% reduction in tumor size) are determined by administering dosage levels ranging from lethal to non-tumor inhibitory. The therapeutic index (TI) is an indication of the selectivity of the compound as an anti-tumor agent.

B16 melanoma = assay: anti-tumor activity against B16 melanoma in BDF1 female mice, i.p. 9 daily doses; format: in vivo; design: median survival time (MST): unit not given here; conditions: for % T/C (MST/MST control×100) / median survival time (MST): 9 daily doses from Day 1; for average weight change (AWC): by Day 6
Description: (§3) Compounds according to the invention were screened for anti-tumor activity against L1210 leukaemia and B16 melanoma in mice. The compounds were administered intraperitoneally as solutions or suspensions in water and "Tween" 80 as carrier to CDF1 male mice (L1210) and BDF1 female mice (B16). […] For each dose level, results are quoted in terms of median survival time (MST); the comparative effect (i.e. MST/MST control×100); average weight change (AWC) by Day 5 (L1210) or Day 6 (B16); and the number of mice alive (MA) at Day 5 (L1210) or Day 10 (B16).
(§4) Results were as follows for the compounds as prepared in Examples 3 and 4.
2. B16 (0.5 ml 10% BREI): treatment consisted of 9 daily doses beginning at Day 1.

ADJ/PC6A plasmacytoma = assay: activity against ADJ/PC6A plasmacytoma grown subcutaneously in mice, oral administration; format: in vivo, female Balb C^- mice; conditions: for ED90 (dose level causing a 90% reduction in tumor size): suspension in arachis oil
Description: as §1, §2

L1210 leukaemia = assay: anti-tumor activity against L1210 leukaemia in CDF1 male mice, i.p. single dose Day 1; format: in vivo; design: median survival time (MST): unit not given here; conditions: for % T/C (MST/MST control×100) / median survival time (MST): single dose Day 1; for average weight change (AWC): by Day 5
Description: as §3, §4
1. L1210 (1×10^6 cells): treatment consisted of single dose on Day 1.

[2] = LD50 (dose level causing 50% deaths), oral administration; format: in vivo, female Balb C^- mice; conditions: suspension in arachis oil
Description: as §1, §2

malignant tumor = conditions: certain forms of malignant tumor in humans; cited from earlier work

N.NC1CCCCC1.O=C([O-])C1(C(=O)[O-])CCC1.[Pt+2] [Ex. 3, ammine(cyclobutane-1,1-dicarboxylato)cyclohexylamine platinum(II)]
Blood conc. of Pt ([1]; 1 hr, oral, 100μ mole/kg, suspension in arachis oil): 0.62 ± 0.11 μg/ml of whole blood
Blood conc. of Pt ([1]; 2 hrs, oral, 100μ mole/kg, suspension in arachis oil): 0.80 ± 0.08 μg/ml of whole blood
Blood conc. of Pt ([1]; 4 hrs, oral, 100μ mole/kg, suspension in arachis oil): 0.64 ± 0.03 μg/ml of whole blood
Blood conc. of Pt ([1]; 7 hrs, oral, 100μ mole/kg, suspension in arachis oil): 0.51 ± 0.09 μg/ml of whole blood
Cage wash (cumulative %) ([1]; 24 hrs, oral, 100μ mole/kg): 5.1 ± 1.2%
Faeces dose (cumulative %) ([1]; 24 hrs, oral, 100μ mole/kg): 57.0 ± 14.1%
Urine dose (cumulative %) ([1]; 24 hrs, oral, 100μ mole/kg): 11.4 ± 2.1%
Blood conc. of Pt ([1]; 24 hrs, oral, 100μ mole/kg, suspension in arachis oil): 0.16 ± 0.05 μg/ml of whole blood
Cage wash (cumulative %) ([1]; 48 hrs, oral, 100μ mole/kg): 6.4 ± 1.8%
Faeces dose (cumulative %) ([1]; 48 hrs, oral, 100μ mole/kg): 62.1 ± 13.7%
Urine dose (cumulative %) ([1]; 48 hrs, oral, 100μ mole/kg): 12.8 ± 1.8%
Blood conc. of Pt ([1]; 48 hrs, oral, 100μ mole/kg, suspension in arachis oil): 0.16 ± 0.03 μg/ml of whole blood
% T/C (MST/MST control×100) (B16 melanoma; 6 mg/kg i.p.): 136%
median survival time (MST) (B16 melanoma; 6 mg/kg i.p.): 26.5
number of mice alive (MA) (B16 melanoma; 6 mg/kg i.p., 9 daily doses, at Day 10): 10/10
average weight change (AWC) (B16 melanoma; 6 mg/kg i.p., 9 daily doses): -0.3 g
% T/C (MST/MST control×100) (B16 melanoma; 12 mg/kg i.p.): 149%
median survival time (MST) (B16 melanoma; 12 mg/kg i.p.): 29.0
number of mice alive (MA) (B16 melanoma; 12 mg/kg i.p., 9 daily doses, at Day 10): 10/10
average weight change (AWC) (B16 melanoma; 12 mg/kg i.p., 9 daily doses): -1.0 g
% T/C (MST/MST control×100) (B16 melanoma; 18 mg/kg i.p.): 174%
median survival time (MST) (B16 melanoma; 18 mg/kg i.p.): 34.0
number of mice alive (MA) (B16 melanoma; 18 mg/kg i.p., 9 daily doses, at Day 10): 10/10
average weight change (AWC) (B16 melanoma; 18 mg/kg i.p., 9 daily doses): -1.6 g
% T/C (MST/MST control×100) (B16 melanoma; 24 mg/kg i.p.): 177%
median survival time (MST) (B16 melanoma; 24 mg/kg i.p.): 34.5
number of mice alive (MA) (B16 melanoma; 24 mg/kg i.p., 9 daily doses, at Day 10): 10/10
average weight change (AWC) (B16 melanoma; 24 mg/kg i.p., 9 daily doses): -1.4 g
therapeutic index TI (LD50/ED90) (ADJ/PC6A plasmacytoma): 22
ED90 (dose level causing a 90% reduction in tumor size) (ADJ/PC6A plasmacytoma): 73 mg/kg
% T/C (MST/MST control×100) (L1210 leukaemia; 40 mg/kg i.p.): 154%
median survival time (MST) (L1210 leukaemia; 40 mg/kg i.p.): 10.0
number of mice alive (MA) (L1210 leukaemia; 40 mg/kg i.p., single dose, at Day 5): 5/5
average weight change (AWC) (L1210 leukaemia; 40 mg/kg i.p., single dose): -0.1 g
% T/C (MST/MST control×100) (L1210 leukaemia; 80 mg/kg i.p.): 185%
median survival time (MST) (L1210 leukaemia; 80 mg/kg i.p.): 12.0
number of mice alive (MA) (L1210 leukaemia; 80 mg/kg i.p., single dose, at Day 5): 6/6
average weight change (AWC) (L1210 leukaemia; 80 mg/kg i.p., single dose): -2.4 g
% T/C (MST/MST control×100) (L1210 leukaemia; 120 mg/kg i.p.): 185%
median survival time (MST) (L1210 leukaemia; 120 mg/kg i.p.): 12.0
number of mice alive (MA) (L1210 leukaemia; 120 mg/kg i.p., single dose, at Day 5): 6/6
average weight change (AWC) (L1210 leukaemia; 120 mg/kg i.p., single dose): -0.6 g
% T/C (MST/MST control×100) (L1210 leukaemia; 160 mg/kg i.p.): 231%
median survival time (MST) (L1210 leukaemia; 160 mg/kg i.p.): 15.0
number of mice alive (MA) (L1210 leukaemia; 160 mg/kg i.p., single dose, at Day 5): 5/6
average weight change (AWC) (L1210 leukaemia; 160 mg/kg i.p., single dose): -4.5 g
LD50 (dose level causing 50% deaths) [2]: 1600 mg/kg

[NH2][Pt]1([NH]C2CCCC2)[O]C(=O)C2(CCC2)C(=O)[O]1 [Ex. 4, ammine(cyclobutane-1,1-dicarboxylato)cyclopentylamine platinum(II)]
Blood conc. of Pt ([1]; mouse, in vivo, po, 1 h): 0.88 ± 0.05 μg/ml of whole blood
Blood conc. of Pt ([1]; mouse, in vivo, po, 2 h): 1.21 ± 0.16 μg/ml of whole blood
Blood conc. of Pt ([1]; mouse, in vivo, po, 4 h): 0.82 ± 0.12 μg/ml of whole blood
Blood conc. of Pt ([1]; mouse, in vivo, po, 7 h): 0.32 ± 0.05 μg/ml of whole blood
Blood conc. of Pt ([1]; mouse, in vivo, po, 24 h): 0.20 ± 0.03 μg/ml of whole blood
Cage wash (cumulative %) ([1]; mouse, in vivo, po, 24 h): 7.1 ± 0.7%
Faeces dose (cumulative %) ([1]; mouse, in vivo, po, 24 h): 57.6 ± 3.5%
Urine dose (cumulative %) ([1]; mouse, in vivo, po, 24 h): 16.8 ± 2.4%
Blood conc. of Pt ([1]; mouse, in vivo, po, 48 h): 0.20 ± 0.03 μg/ml of whole blood
Cage wash (cumulative %) ([1]; mouse, in vivo, po, 48 h): 8.0 ± 0.9%
Faeces dose (cumulative %) ([1]; mouse, in vivo, po, 48 h): 59.8 ± 3.6%
Urine dose (cumulative %) ([1]; mouse, in vivo, po, 48 h): 18.2 ± 2.4%
% T/C (MST/MST control×100) (B16 melanoma; 8 mg/kg): 115%
median survival time (MST) (B16 melanoma; 8 mg/kg): 22.5
% T/C (MST/MST control×100) (B16 melanoma; 13 mg/kg i.p.): 133%
median survival time (MST) (B16 melanoma; 13 mg/kg i.p.): 26.0
% T/C (MST/MST control×100) (B16 melanoma; 20 mg/kg i.p.): 149%
median survival time (MST) (B16 melanoma; 20 mg/kg i.p.): 29.0
% T/C (MST/MST control×100) (B16 melanoma; 30 mg/kg i.p.): 164%
median survival time (MST) (B16 melanoma; 30 mg/kg i.p.): 32.0
number of mice alive (MA) (B16 melanoma; mouse, in vivo): 10/10
therapeutic index TI (LD50/ED90) (ADJ/PC6A plasmacytoma): 32
ED90 (dose level causing a 90% reduction in tumor size) (ADJ/PC6A plasmacytoma): 50 mg/kg
% T/C (MST/MST control×100) (L1210 leukaemia; 40 mg/kg i.p.): 154%
median survival time (MST) (L1210 leukaemia; 40 mg/kg i.p.): 10.0
% T/C (MST/MST control×100) (L1210 leukaemia; 80 mg/kg i.p.): 177%
median survival time (MST) (L1210 leukaemia; 80 mg/kg i.p.): 11.5
% T/C (MST/MST control×100) (L1210 leukaemia; 120 mg/kg i.p.): 177%
median survival time (MST) (L1210 leukaemia; 120 mg/kg i.p.): 11.5
% T/C (MST/MST control×100) (L1210 leukaemia; 160 mg/kg i.p.): 192%
median survival time (MST) (L1210 leukaemia; 160 mg/kg i.p.): 12.5
number of mice alive (MA) (L1210 leukaemia; mouse, in vivo): 6/6
LD50 (dose level causing 50% deaths) [2]: 1600 mg/kg

N.N.[Cl][Pt][Cl] [cisplatin, cis-diamminedichloroplatinum(II), reference compound]
% T/C (MST/MST control×100) (B16 melanoma; 0.4 mg/kg): 131%
median survival time (MST) (B16 melanoma; 0.4 mg/kg): 25.5
number of mice alive (MA) (B16 melanoma; 0.4 mg/kg, 9 daily doses, at Day 10): 10/10
average weight change (AWC) (B16 melanoma; 0.4 mg/kg, 9 daily doses): -0.9 g
% T/C (MST/MST control×100) (B16 melanoma; 0.8 mg/kg): 164%
median survival time (MST) (B16 melanoma; 0.8 mg/kg): 32.0
number of mice alive (MA) (B16 melanoma; 0.8 mg/kg, 9 daily doses, at Day 10): 10/10
average weight change (AWC) (B16 melanoma; 0.8 mg/kg, 9 daily doses): -1.5 g
% T/C (MST/MST control×100) (B16 melanoma; 1.6 mg/kg): 187%
median survival time (MST) (B16 melanoma; 1.6 mg/kg): 36.5
number of mice alive (MA) (B16 melanoma; 1.6 mg/kg, 9 daily doses, at Day 10): 10/10
average weight change (AWC) (B16 melanoma; 1.6 mg/kg, 9 daily doses): -3.1 g
% T/C (MST/MST control×100) (B16 melanoma; 2.4 mg/kg): 231%
median survival time (MST) (B16 melanoma; 2.4 mg/kg): 45.0
number of mice alive (MA) (B16 melanoma; 2.4 mg/kg, 9 daily doses, at Day 10): 10/10
average weight change (AWC) (B16 melanoma; 2.4 mg/kg, 9 daily doses): -3.9 g
ED90 (dose level causing a 90% reduction in tumor size) (ADJ/PC6A plasmacytoma): 24 mg/kg
% T/C (MST/MST control×100) (L1210 leukaemia; 4 mg/kg): 146%
median survival time (MST) (L1210 leukaemia; 4 mg/kg): 9.5
number of mice alive (MA) (L1210 leukaemia; 4 mg/kg, single dose, at Day 5): 6/6
average weight change (AWC) (L1210 leukaemia; 4 mg/kg, single dose): -0.8 g
% T/C (MST/MST control×100) (L1210 leukaemia; 6 mg/kg): 169%
median survival time (MST) (L1210 leukaemia; 6 mg/kg): 11.0
number of mice alive (MA) (L1210 leukaemia; 6 mg/kg, single dose, at Day 5): 6/6
average weight change (AWC) (L1210 leukaemia; 6 mg/kg, single dose): -3.2 g
% T/C (MST/MST control×100) (L1210 leukaemia; 8 mg/kg): 192%
median survival time (MST) (L1210 leukaemia; 8 mg/kg): 12.5
number of mice alive (MA) (L1210 leukaemia; 8 mg/kg, single dose, at Day 5): 6/6
average weight change (AWC) (L1210 leukaemia; 8 mg/kg, single dose): -4.6 g
% T/C (MST/MST control×100) (L1210 leukaemia; 10 mg/kg): 123%
median survival time (MST) (L1210 leukaemia; 10 mg/kg): 8.0
number of mice alive (MA) (L1210 leukaemia; 10 mg/kg, single dose, at Day 5): 6/6
average weight change (AWC) (L1210 leukaemia; 10 mg/kg, single dose): -4.7 g
treatment of malignant tumor (malignant tumor): effective for the treatment of certain forms of malignant tumor in humans
